This is an account of results in patent US10336762B2 (priority 2017, dated 2019).

pEC50, pIC50: −log10 of the molar value. Read-outs that look alike come from different tables or passages of the source.

One assay concerns TNFα. Kind of assay: cells. In kind it is cell-based, human. Conditions: Homo sapiens, Monocyte, LPS-stimulated human monocytes, read-out: EC50 TNF.
A further assay deals with IRAK4 enzyme (Homo sapiens (Human), UniProt Q9NWZ3). As to the kind of experiment: biochemical. Particulars: IRAK4 enzyme, 500 μM ATP. It is filed as biochemical.
IRAK4 enzyme, sequence (Q9NWZ3 whole entry): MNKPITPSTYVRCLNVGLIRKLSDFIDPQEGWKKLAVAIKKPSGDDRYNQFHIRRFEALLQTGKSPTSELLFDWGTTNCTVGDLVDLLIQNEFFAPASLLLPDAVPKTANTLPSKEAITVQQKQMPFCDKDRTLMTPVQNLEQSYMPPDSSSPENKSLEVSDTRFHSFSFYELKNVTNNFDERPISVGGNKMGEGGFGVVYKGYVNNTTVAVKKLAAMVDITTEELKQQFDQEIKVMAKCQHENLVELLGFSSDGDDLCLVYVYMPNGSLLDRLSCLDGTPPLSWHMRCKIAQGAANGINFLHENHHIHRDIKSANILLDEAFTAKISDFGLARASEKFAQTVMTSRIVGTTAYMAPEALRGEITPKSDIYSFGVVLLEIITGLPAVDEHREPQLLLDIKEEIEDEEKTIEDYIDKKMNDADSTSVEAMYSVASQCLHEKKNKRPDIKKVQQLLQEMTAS

Description for TNFα: IRAK4 Monocyte TNFα Cell Based Assay Procedure:
The cell suspension was then plated at a density of 5,000 cells/well onto black 384 well Greiner clear bottom plates. Plates were pre-spotted with test compounds and serially diluted in DMSO where 200 nL/well were delivered using the Echo 550 acoustic liquid dispenser (Labcyte®) for a final DMSO concentration of 0.5%. Plated cells were treated with compound for 1 hour at 37° C. Cells were then stimulated with 50 pg/ml of LPS (Sigma) excluding outside columns of plate used for unstimulated cell control wells. Cells were incubated for an additional 4 hours at 37° C. Cells were then spun out of the media and 5 μl of sample were taken and analyzed for total TNFα content using the TR-FRET Human TNFα detection system (CisBio). This system utilizes two labeled antibodies (cryptate and XL665) that bind to two different epitopes of the TNFα molecule and produce FRET signal proportional to the concentration of TNFα in the sample. Detection antibodies are mixed 50:50 and 5 μL were dispensed into each well. Plates were covered with clear seals and incubated at room temp overnight. […] Percent of control was calculated as follows: % Control=100×(RatioSample−Ratio0% stimulation)/(Ratio100% Stimulation−Ratio0% Stimulation) where unstimulated cells (0% stimulation) were the negative control and stimulated cells (100% stimulation) were used as the positive control.

One may read the pEC50 as the EC50 on a negative log10 scale, so that one unit is a factor of ten. A word on the pIC50: it is −log10 of the IC50, conventionally taken in molar units. In the case of `CC(C)(O)[C@H](F)CNC(=O)c1cnc(-c2ccc3cc(C#N)cnn23)cc1N[C@H]1C[C@H](Cn2ccnc2)C1` [Example 783, 4-(((1r,3R)-3-((1H-imidazol-1-yl)methyl)cyclo-butyl)amino)-6-(3-cyanopyrrolo[1,2-b]pyridazin-7-yl)-N-((R)-2-fluoro-3-hydroxy-3-methylbutyl)nicotinamide], the pEC50 in the assay on TNFα (TNFα content) was 7.66. For the same molecule, the pIC50 at IRAK4 enzyme (TR-FRET (HTRF)) was above 9.00.

For the molecule `COCc1cncc(Nc2cc(-c3ccc4cc(C#N)cnn34)ncc2C(=O)NC[C@@H](F)C(C)(C)O)c1` [Example 784, (R)-6-(3-cyanopyrrolo[1,2-b]pyridazin-7-yl)-N-(2-fluoro-3-hydroxy-3-methylbutyl)-4-((5-(methoxymethyl)pyridin-3-yl)amino)nicotinamide], the pEC50 in the assay with TNFα (TNFα content) is 7.40. On IRAK4 enzyme (TR-FRET (HTRF)), this molecule gave a pIC50 above 9.00.

Regarding `N#Cc1cnn2c(-c3cc(NC45CCC(O)(CC4)CC5)c(C(=O)NCC(=O)N4CCOCC4)cn3)ccc2c1` [Example 785, 6-(3-cyanopyrrolo[1,2-b]pyridazin-7-yl)-4-((4-hydroxybicyclo[2.2.2]octan-1-yl)amino)-N-(2-morpholino-2-oxoethyl)nicotinamide], the pEC50 with TNFα (TNFα content) was 7.64. At IRAK4 enzyme (TR-FRET (HTRF)), this molecule had a pIC50 above 9.00.

On to `COCCNC(=O)CNC(=O)c1cnc(-c2ccc3cc(C#N)cnn23)cc1NC12CCC(O)(CC1)CC2` [Example 786, 6-(3-cyanopyrrolo[1,2-b]pyridazin-7-yl)-4-((4-hydroxybicyclo[2.2.2]octan-1-yl)amino)-N-(2-((2-methoxyethyl)amino)-2-oxoethyl)nicotinamide], for which the pEC50 in the assay with TNFα (TNFα content) was 6.49. This molecule had a pIC50 against IRAK4 enzyme (TR-FRET (HTRF)) of 8.70.

Take `N#Cc1cnn2c(-c3cc(NC45CCC(O)(CC4)CC5)c(C(=O)NCC(=O)N4CC(F)C4)cn3)ccc2c1` [Example 787, 6-(3-cyanopyrrolo[1,2-b]pyridazin-7-yl)-N-(2-(3-fluoroazetidin-1-yl)-2-oxoethyl)-4-((4-hydroxybicyclo[2.2.2]octan-1-yl)amino) nicotinamide]: the pEC50 in the assay with TNFα (TNFα content) was 7.10. This molecule also showed a pIC50 against IRAK4 enzyme (TR-FRET (HTRF)) above 9.00.

As to `CNC(=O)NC[C@H]1C[C@H](Nc2cc(-c3ccc4cc(C#N)cnn34)ncc2C(=O)NC[C@@H](F)C(C)(C)O)C1` [Example 788, 6-(3-cyanopyrrolo[1,2-b]pyridazin-7-yl)-N-((R)-2-fluoro-3-hydroxy-3-methylbutyl)-4-(((1r,3R)-3-((3-methylureido)methyl)cyclobutyl)amino) nicotinamide], the pEC50 in the assay with TNFα (TNFα content) is 7.05. Moreover, at IRAK4 enzyme (TR-FRET (HTRF)), the pIC50 was above 9.00.

For `CN1CCN(C(=O)CNC(=O)c2cnc(-c3ccc4cc(C#N)cnn34)cc2NC23CCC(O)(CC2)CC3)CC1` [Example 789, 6-(3-cyanopyrrolo[1,2-b]pyridazin-7-yl)-4-((4-hydroxybicyclo[2.2.2]octan-1-yl)amino)-N-(2-(4-methylpiperazin-1-yl)-2-oxoethyl)nicotinamide], the pEC50 in the assay with TNFα (TNFα content) is 7.70. The pIC50 against IRAK4 enzyme (TR-FRET (HTRF)) was above 9.00.

On to `N#Cc1cnn2c(-c3cc(NC45CCC(O)(CC4)CC5)c(C(=O)NCC(=O)N4CCCC4)cn3)ccc2c1` [Example 790, 6-(3-cyanopyrrolo[1,2-b]pyridazin-7-yl)-4-((4-hydroxybicyclo[2.2.2]octan-1-yl)amino)-N-(2-oxo-2-(pyrrolidin-1-yl)ethyl)nicotinamide], for which the pEC50 with TNFα (TNFα content) is 7.68. At IRAK4 enzyme (TR-FRET (HTRF)), this molecule had a pIC50 above 9.00.

`COC1CN(C(=O)CNC(=O)c2cnc(-c3ccc4cc(C#N)cnn34)cc2NC23CCC(O)(CC2)CC3)C1` [Example 791, 6-(3-cyanopyrrolo[1,2-b]pyridazin-7-yl)-4-((4-hydroxybicyclo[2.2.2]octan-1-yl)amino)-N-(2-(3-methoxyazetidin-1-yl)-2-oxoethyl)nicotinamide]: the pEC50 with TNFα (TNFα content) was 7.35. The same molecule showed a pIC50 on IRAK4 enzyme (TR-FRET (HTRF)) of 9.00.

Regarding `N#Cc1cnn2c(-c3cc(NC45CCC(O)(CC4)CC5)c(C(=O)NCC(=O)N4CCCCC4)cn3)ccc2c1` [Example 792, 6-(3-cyanopyrrolo[1,2-b]pyridazin-7-yl)-4-((4-hydroxybicyclo[2.2.2]octan-1-yl)amino)-N-(2-oxo-2-(piperidin-1-yl)ethyl)nicotinamide], the pEC50 in the assay with TNFα (TNFα content) is 7.07. Further, the pIC50 at IRAK4 enzyme (TR-FRET (HTRF)) is 8.70.

For the molecule `CN1CCN(C(=O)NC[C@H]2C[C@H](Nc3cc(-c4ccc5cc(C#N)cnn45)ncc3C(=O)NC[C@@H](F)C(C)(C)O)C2)CC1` [Example 793, N-(((1R,3r)-3-((2-(3-cyanopyrrolo[1,2-b]pyridazin-7-yl)-5-(((R)-2-fluoro-3-hydroxy-3-methylbutyl)carbamoyl)pyridin-4-yl)amino)cyclobutyl)methyl)-4-methylpiperazine-1-carboxamide], the pEC50 with TNFα (TNFα content) was 6.22. This molecule showed a pIC50 at IRAK4 enzyme (TR-FRET (HTRF)) of 8.52.

`CN1CCC(C(=O)NC[C@H]2C[C@H](Nc3cc(-c4ccc5cc(C#N)cnn45)ncc3C(=O)NC[C@@H](F)C(C)(C)O)C2)CC1` [Example 794, 6-(3-cyanopyrrolo[1,2-b]pyridazin-7-yl)-N-((R)-2-fluoro-3-hydroxy-3-methylbutyl)-4-(((1r,3R)-3-((1-methylpiperidine-4-carboxamido)methyl)cyclo-butyl)amino)nicotinamide]: the pEC50 in the assay with TNFα (TNFα content) was 6.00. The pIC50 at IRAK4 enzyme (TR-FRET (HTRF)) is 8.70.

In the case of `CN1CC(C(=O)NC[C@H]2C[C@H](Nc3cc(-c4ccc5cc(C#N)cnn45)ncc3C(=O)NC[C@@H](F)C(C)(C)O)C2)C1` [Example 795, 6-(3-cyanopyrrolo[1,2-b]pyridazin-7-yl)-N-((R)-2-fluoro-3-hydroxy-3-methylbutyl)-4-(((1r,3R)-3-((1-methylazetidine-3-carboxamido)methyl)cyclobutyl)amino) nicotinamide], the pEC50 in the assay with TNFα (TNFα content) was below 5.00. The molecule further showed a pIC50 against IRAK4 enzyme (TR-FRET (HTRF)) of 8.15.

With `N#Cc1cnn2c(-c3cc(NC45CCC(O)(CC4)CC5)c(C(=O)NCC(=O)N4CCN(C5COC5)CC4)cn3)ccc2c1` [Example 796, 6-(3-cyanopyrrolo[1,2-b]pyridazin-7-yl)-4-((4-hydroxybicyclo[2.2.2]octan-1-yl)amino)-N-(2-(4-(oxetan-3-yl)piperazin-1-yl)-2-oxoethyl)nicotinamide], in the assay on TNFα (TNFα content), the pEC50 is 7.12. Further, at IRAK4 enzyme (TR-FRET (HTRF)), the pIC50 is 8.70.

As for `CC1(F)CN(C(=O)CNC(=O)c2cnc(-c3ccc4cc(C#N)cnn34)cc2NC23CCC(O)(CC2)CC3)C1` [Example 797, 6-(3-cyanopyrrolo[1,2-b]pyridazin-7-yl)-N-(2-(3-fluoro-3-methyl-azetidin-1-yl)-2-oxoethyl)-4-((4-hydroxybicyclo[2.2.2]octan-1-yl)amino) nicotinamide], the pEC50 in the assay with TNFα (TNFα by TR-FRET) was 7.42. The pIC50 at IRAK4 enzyme (TR-FRET) is 9.00.

In the case of `N#Cc1cnn2c(-c3cc(NC45CCC(O)(CC4)CC5)c(C(=O)NCC(=O)N4CCC(F)(F)C4)cn3)ccc2c1` [Example 798, 6-(3-cyanopyrrolo[1,2-b]pyridazin-7-yl)-N-(2-(3,3-difluoropyrrolidin-1-yl)-2-oxoethyl)-4-((4-hydroxybicyclo[2.2.2]octan-1-yl)amino) nicotinamide], the pEC50 in the assay with TNFα (TNFα by TR-FRET) is 7.38. The same molecule gave a pIC50 on IRAK4 enzyme (TR-FRET) of 9.00.

Regarding `N#Cc1cnn2c(-c3cc(NC45CCC(O)(CC4)CC5)c(C(=O)NCC(=O)N4CCC5(COC5)C4)cn3)ccc2c1` [Example 799, 6-(3-cyanopyrrolo[1,2-b]pyridazin-7-yl)-4-((4-hydroxybicyclo[2.2.2]octan-1-yl)amino)-N-(2-oxo-2-(2-oxa-6-azaspiro[3.4]octan-6-yl)ethyl)nicotinamide], the negative-log EC50 (pEC50) with TNFα (TNFα by TR-FRET) is 7.21. The same molecule showed a pIC50 against IRAK4 enzyme (TR-FRET) above 9.00.

Turning to `N#Cc1cnn2c(-c3cc(NC45CCC(O)(CC4)CC5)c(C(=O)NCC(=O)N4CC5(COC5)C4)cn3)ccc2c1` [Example 800, 6-(3-cyanopyrrolo[1,2-b]pyridazin-7-yl)-4-((4-hydroxybicyclo[2.2.2]octan-1-yl)amino)-N-(2-oxo-2-(2-oxa-6-azaspiro[3.3]heptan-6-yl)ethyl)nicotinamide], the pEC50 in the assay on TNFα (TNFα by TR-FRET) was 6.88. On IRAK4 enzyme (TR-FRET), this molecule had a pIC50 of 8.52.

On to `CCOC(=O)CCNC(=O)c1cnc(-c2ccc3cc(C#N)cnn23)cc1NC12CCC(O)(CC1)CC2` [Example 801, ethyl 3-(6-(3-cyano-pyrrolo[1,2-b]pyridazin-7-yl)-4-((4-hydroxy-bicyclo[2.2.2]octan-1-yl)amino)nicotinamido) propanoate], for which the pEC50 with TNFα (TNFα by TR-FRET) is 7.24. The molecule also had a pIC50 on IRAK4 enzyme (TR-FRET) of 9.00.

For the molecule `CN1CCN(C(=O)C23CCC(Nc4cc(-c5ccc6cc(C#N)cnn56)ncc4C(=O)NC[C@@H](F)C(C)(C)O)(CC2)CC3)CC1` [Example 802, (R)-6-(3-cyanopyrrolo[1,2-b]pyridazin-7-yl)-N-(2-fluoro-3-hydroxy-3-methylbutyl)-4-((4-(4-methylpiperazine-1-carbonyl)bicyclo[2.2.2]octan-1-yl)amino) nicotinamide], in the assay with TNFα (TNFα by TR-FRET), the pEC50 is 6.80. Also, on IRAK4 enzyme (TR-FRET), the pIC50 is 8.70.

In the case of `CNC(=O)CCNC(=O)c1cnc(-c2ccc3cc(C#N)cnn23)cc1NC12CCC(O)(CC1)CC2` [Example 803, 6-(3-cyanopyrrolo[1,2-b]pyridazin-7-yl)-4-((4-hydroxybicyclo[2.2.2]octan-1-yl)amino)-N-(3-(methylamino)-3-oxopropyl)nicotinamide], the pEC50 in the assay with TNFα (TNFα by TR-FRET) is 6.49. This molecule gave a pIC50 against IRAK4 enzyme (TR-FRET) of 9.00.

With `CN(C)C(=O)CCNC(=O)c1cnc(-c2ccc3cc(C#N)cnn23)cc1NC12CCC(O)(CC1)CC2` [Example 804, 6-(3-cyanopyrrolo[1,2-b]pyridazin-7-yl)-N-(3-(dimethylamino)-3-oxo-propyl)-4-((4-hydroxy-bicyclo[2.2.2]octan-1-yl)amino)nicotinamide], the pEC50 in the assay with TNFα (TNFα by TR-FRET) is 7.32. This molecule also had a pIC50 at IRAK4 enzyme (TR-FRET) above 9.00.

In the case of `N#Cc1cnn2c(-c3cc(NC45CCC(O)(CC4)CC5)c(C(=O)NCCC(=O)N4CC(F)(F)C4)cn3)ccc2c1` [Example 805, 6-(3-cyanopyrrolo[1,2-b]pyridazin-7-yl)-N-(3-(3,3-difluoroazetidin-1-yl)-3-oxopropyl)-4-((4-hydroxybicyclo[2.2.2]octan-1-yl)amino) nicotinamide], the pEC50 in the assay with TNFα (TNFα by TR-FRET) was 6.89. On IRAK4 enzyme (TR-FRET), this molecule had a pIC50 above 9.00.
